According to US20240350494A1, “THERAPEUTIC MODULATION OF INTEGRINS” (Pliant Therapeutics, Inc., priority 2021, published 2024):
“Also recorded” adds a separate entry of the source.

Key:
[1] = Phase 2a trial in IPF, safety and tolerability; format: in vivo, human
[2] = test system: forced vital capacity (FVC); assay: Phase 2a trial in IPF, forced vital capacity; format: in vivo, human
Description: The exploratory endpoints of the trial measured changes in forced vital capacity (FVC), HRCT-based Quantitative Lung Fibrosis score (QLF), and selected biomarkers over 3 months of treatment.
FIG. 19 illustrates the change in FVC (forced vital capacity) from baseline to Week 12, MMRM Analysis—ITT Population. Change from baseline analyzed using a mixed model for repeated measures with terms for treatment group, SOC (Y/N), visit, baseline value, and treatment-by-visit interaction. An unstructured covariance (UN) structure was used.

[3] = SAD/MAD first-in-human pharmacokinetics; format: in vivo; conditions: healthy subjects
Experimental: Healthy human subjects (N=85) were selected for single ascending dose (SAD) and multiple ascending dose (MAD) first-in-human studies. A solution for oral administration was prepared, containing 10 mg/mL of compound 5 in a 50:50 mixture of ORA-SWEET® SF (PERRIGO®, Allegan, Michigan) and sterile water for irrigation. Sufficient solution was administered orally to the subjects to provide between 15 mg/dose and 75 mg/dose of compound 5 in the SAD study and between 10 mg/dose and 40 mg/dose of compound 5 in the MAD study. Concentrations of compound 5 were measured in the subjects by obtaining a sample of plasma from each subject at desired intervals, and subjecting the plasma to liquid chromatography-mass spectrometry-mass spectrometry (LC-MS/MS), with quantification using a calibration curve determined from a range of solutions at standardized concentrations. The lower limit of quantitation (LLOQ) of the assay was 1 ng/mL and the calibration curve range was 1 to 500 ng/mL.

SMAD3 phosphorylation = assay: Murine bleomycin model, SMAD3 phosphorylation; format: in vivo, mice (C57BL/6); conditions: bleomycin day 0, oral gavage BID 14 days from day 7 at 1×, 5×, FIG. 2C
Description: It has been previously shown that inhibition of αVβ6 in the lung can be detected though measurement of phospho-SMAD (pSMAD) in alveolar macrophages. Alveolar macrophages are known to operate in a unique niche in the lung, distinct from interstitial macrophages. SMAD3 is a downstream target of the active TGF-β cytokine binding its receptor and in alveolar macrophages it is phosphorylated by homoeostatic levels of TGF-β. Accordingly, it was desirable to know whether inhibition of TGF-β activation using the disclosed compounds would result in reduced SMAD2 and SMAD3 phosphorylation.
Mice (C57BL/6) were divided into healthy (n=15), vehicle-treated (n=15), and test article-treated (n=15 per dose) groups. Mice in the vehicle and test article-treated groups were administered 3 U/kg of bleomycin (Teva Pharmaceuticals; North Wales, PA) via oropharyngeal aspiration while under anesthesia on day 0. Healthy animals were administered water in a similar fashion. Starting on day 7, mice in the control group were administered PBS vehicle, 130 μL, by oral gavage, BID for 14 days. Also starting on day 7, mice in the test group were administered compound 5 in PBS by oral gavage, BID for 14 days, at relative dosages of 1×, 2.5× and 5×. […] From day 14 through day 21, 9 of the 15 mice were administered ^2H2O for labeling. All mice were sacrificed on day 21 and tissues were collected. […]

[4] = test system: Type I Collagen gene Col1a1 expression; assay: Precision cut lung slices, acute bleomycin exposure, Col1a1 expression; format: cell-based, mice (C57BL/6); conditions: 3 days culture; integrin inhibitors at IC50 for TGF-beta activation; pan-αV and ALK5 inhibitors at 10× reported IC50; FIG. 3A
Experimental: Mice (C57BL/6) were administered 3 U/kg of bleomycin (Teva Pharmaceuticals; North Wales, PA) on day 0 via oropharyngeal aspiration while under anesthesia. On day 14, precision cut lung slices were obtained. Following euthanization, 2% low gelling temp agarose was injected into the mouse lungs via the trachea. […] The lobes were then subjected to precision slicing to obtain samples for culture using a microtome (Compresstome VF-300-OZ, Precisionary; Greenville, NC). Individual slices were distributed in a multiwell culture plate and cultured for 3 days under control (DMSO) and test compound conditions.

pSMAD2:SMAD2 ratio = pSMAD2:SMAD2 ratio in BAL of healthy subjects (20 or 40 mg daily); format: in vivo, human; conditions: all subjects with Cmax above 700 ng/mL; Day 7; FIG. 6G
Experimental: In order to evaluate the change of pSMAD2 as a biomarker of TGF-β activity following administration of an integrin inhibitor, and to determine a therapeutically effective dosage and an effective blood plasma Cmax of the integrin inhibitor, healthy subjects were administered compound 5, a dual selective αVβ6/αVβ1-integrin inhibitor, and the corresponding Cmax levels and decrease in phosphorylation levels and were determined.
Healthy non-smoking adult males without history of lung disease were selected as subjects and were randomized into 4 cohorts. Broncoalevaolar lavage samples were obtained from all subjects 1 day prior to start of treatment. Cohorts 1 and 2 were administered 20 mg of a compound daily, wherein 3 subjects were administered the dual selective αVβ6/αVβ1-integrin inhibitor (compound 5) per every 1 subject receiving a placebo compound. Cohorts 3 and 4 were administered 40 mg of a compound daily, wherein 3 subjects were administered the dual selective αVβ6/αVβ1-integrin inhibitor (compound 5) per every 1 subject receiving a placebo compound. BAL samples and blood samples were taken from all subjects on Day −1 (baseline) and on Day 7 (end of treatment).

[5] = test system: Human bronchial epithelial cells; assay: LAP adhesion assay, normal human bronchial epithelial cells (express αVβ6); format: cell-based; conditions: cell index (electrical impedance), xCELLigence; FIG. 1A
Experimental: Two latency associated peptide (LAP) adhesion binding assays were devised using primary human lung cells, including normal (healthy) human bronchial epithelial cells and human lung fibroblasts (healthy and IPF).
Human bronchial epithelial cells are known to express αVβ6 integrin in culture. Human bronchial epithelial cells were prepared for the assay by dissociation with trypsin/EDTA and were then seeded at 20,000 cells per well on 96 well plates (ACEA Bioscience E-plate View, Acea Biosciences; San Diego, CA) previously coated with 5 μg/ml of recombinant human LAP (R&D Systems; Minneapolis, MN) and blocked with 4% bovine serum albumin. Cell index (electrical impedance) was measured to assess cell attachment/spreading every 3 minutes for 24 hours at 37° C./5% CO2 using the xCELLigence RTCA MP Instrument (Acea Biosciences; San Diego, CA).

[6] = of the 67 patients treated with Compound 5

In the case of `COCCN(CCCCc1ccc2c(n1)NCCC2)CC[C@H](Nc1ncnc2ccccc12)C(=O)O` [Compound 5, (S)-4-((2-methoxyethyl)(4-(5,6,7,8-tetrahydro-1,8-naphthyridin-2-yl)butyl)amino)-2-(quinazolin-4-ylamino)butanoic acid], the “discontinuations due to adverse events” value ([1]; 12 weeks, 40-160 mg QD) is reported as “no discontinuations due to adverse events; also recorded: No premature discontinuations due to AEs; also recorded: no participants discontinued Compound 5 due to TEAE”, the “most frequent TEAE” value ([1]; 12 weeks, 40-160 mg QD) is reported as “diarrhea but only seen in patients on standard of care” and the “severity of most treatment emergent adverse events (TEAE)” value ([1]; 12 weeks, 40-160 mg QD) is reported as “mild or moderate in severity”. For the same compound, the “treatment related deaths or drug related serious adverse events (SAE)” value ([1]; 12 weeks, 40-160 mg QD) was “No treatment related deaths or drug related serious adverse events (SAE) were reported; also recorded: No deaths or drug-related SAEs; also recorded: no treatment-emergent serious adverse events (SAEs) were observed; also recorded: no treatment related SAEs or deaths”, the tolerability ([1]; IPF patients, 40, 80, 160 mg once daily, 12 weeks) was “safe and well tolerated” and the “patients who completed 12 weeks of treatment, number” value [1, 6] was 65. The “patients who completed 12 weeks of treatment, proportion” value [1, 6] was 97%, the “increase in FVC relative to baseline” value ([2]; 80 mg QD, 12 weeks) was “+24.6 mL” and the “treatment effect on FVC versus placebo at 12 weeks” value ([2]; 40, 80, 160 mg QD) was “dose-dependent treatment effect”. For the same compound, the “proportion of patients experiencing a FVCpp decline of ≥10%, dose dependence” value ([2]; 40, 80, 160 mg QD, 12 weeks) was “Dose-dependent reduction; also recorded: dose-dependent decrease; also recorded: Dose dependent reduction”, the “treatment effect with and without standard of care therapy” value ([2]; all Compound 5 dose groups, SoC nintedanib or pirfenidone) was “A treatment effect was observed; also recorded: evident with and without use of standard-of-care agents” and the “oral bioavailability and pharmacokinetics” value [3] was “good oral bioavailability and pharmacokinetics”. The “SMAD3 phosphorylation in lung tissue compared to vehicle-treated mice” value (SMAD3 phosphorylation) was “substantial, statistically significant dose-dependent reductions”, the “Type I Collagen gene Col1a1 expression, normalized to DMSO control slices” value [4] was “decreased Type I Collagen gene Col1a1 expression substantially” and the “reduction in pSMAD2:SMAD2 ratio in BAL compared to the placebo group” value (pSMAD2:SMAD2 ratio) was ≥ 50%. For the same compound, the “inhibition of normal bronchial epithelial cell adhesion to LAP” value [5] was “substantially inhibited”.
